{
  "source": "patent US20250163169A1",
  "about": "“ANTIBODIES FOR PREVENTING THE CLEAVAGE OF CD95L BY METALLOPROTEASES” (INSTITUT NATIONAL DE LA SANTÉ ET DE LA RECHERCHE MÉDICALE, priority 2022, published 2025)",
  "key": {"[1]": {"test_system": "CD95L-expressing leukemic T cell 1A12", "experiment": "Expression level of membrane-bound CD95L on 1A12 cells by flow cytometry", "type": "cell-based", "settings": "24 h, antibodies 10 pg/mL, GM6001 10 μM", "method": "(§1) FIG. 2. Monoclonal antibodies targeting the Metalloprotease-Cleavage Sites of CD95L (MCSCs). […] Arrows represent putative cleavage site in CD95L sequence. […] Indicated peptides were injected in mice to generate monoclonal antibodies and three different hybridoma were selected regarding their ability to bind CD95L. […] B. Recombinant Ig-CD95L (100 ng) was pre-incubated for 15 min with indicated antibodies (100 pg/mL) and then treated for 1h with the indicated MMPs. The metalloprotease-cleaved fragment of Ig-CD95L (CD95L devoid of its released Ig domain of gp190) was monitored by immunoblotting. C. CD95L-expressing leukemic T cell 1A12 was incubated for 24 h with indicated antibodies ([…]) or the pan-MMP inhibitor GM6001 (10 μM) and the expression level of membrane-bound CD95L was assessed by flow cytometry. D. Supernatants were harvested from cells treated in C and the metalloprotease-cleaved CD95L was dosed by ELISA (Diaclone)."}, "[2]": {"test_system": "s-CD95L release from 1A12 cells", "experiment": "Metalloprotease-cleaved CD95L dosed by ELISA in supernatants of 1A12 cells", "type": "cell-based", "settings": "1A12 cells treated 24 hours, vs isotype (anti-myc 9E10 mAb) control", "method": "as §1"}},
  "data": [
    {"smiles": "CNC(=O)[C@H](Cc1c[nH]c2ccccc12)NC(=O)[C@@H](CC(=O)NO)CC(C)C", "note": "[GM6001, reference compound]", "values": [
      {"measurement": "Expression level of membrane-bound CD95L", "setting": "[1]", "result": "augmentation of m-CD95L"},
      {"measurement": "Concentrations of s-CD95L in supernatant", "setting": "[2]", "result": "significantly reduced"}
    ]}
  ]
}
